From patent US20220347175A1, “PYRIDAZINONE DERIVATIVE” (Sumitomo Dainippon Pharma Co., Ltd., priority 2018, published 2022)

Legend:
[1] = biological target: T1, human Nav1.1 (Homo sapiens, UniProt P35498); assay: Amplification of Nav1.1-derived voltage-dependent sodium current (Nav1.1 current), cell line stably expressing human Nav1.1, automated patch clamp; assay type: cell-based; conditions: read-out: Nav1.1 current amplification rate (%); for activation at 3 µM: compound 3 μmol/L; for activation at 3 µM / activation at 1 µM: HEK293 stably expressing human Nav1.1; for activation at 1 µM: compound 1 μmol/L; for activation at 10 µM: 10 μmol/L compound, change of the area under the curve of Nav1.1 current (Test Result 1)
T1 construct: host or cells: HEK293
Method in brief: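 Amplification rate (%) is 100 × post-compound/pre-compound Nav1.1 peak current or AUC, minus 100. Ramp-evoked sodium currents were recorded by automated patch clamp in a human Nav1.1 HEK293 stable line, restricted to cells exceeding 500 pA, with compounds added in extracellular solution containing 1% DMSO.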

[2] = biological target: T2, human Nav1.5 (Homo sapiens, UniProt Q14524); assay: Amplification of Nav1.5-derived voltage-dependent sodium current (Nav1.5 current), cell line stably expressing human Nav1.5, automated patch clamp; assay type: cell-based; conditions: read-out: Nav1.5 current amplification rate (%); for activation at 3 µM: compound 3 μmol/L; for activation at 3 µM / activation at 1 µM: CHO-K1 stably expressing human Nav1.5; for activation at 1 µM: compound 1 μmol/L; for activation at 10 µM: 10 μmol/L compound, change of the area under the curve of Nav1.5 current (Test Result 1)
T2 construct: expressed in transfected cells; host or cells: CHO-K1 (T-REx System, ThermoFisher Scientific)
T2 sequence (Q14524 1-2015 isoform Q14524-2): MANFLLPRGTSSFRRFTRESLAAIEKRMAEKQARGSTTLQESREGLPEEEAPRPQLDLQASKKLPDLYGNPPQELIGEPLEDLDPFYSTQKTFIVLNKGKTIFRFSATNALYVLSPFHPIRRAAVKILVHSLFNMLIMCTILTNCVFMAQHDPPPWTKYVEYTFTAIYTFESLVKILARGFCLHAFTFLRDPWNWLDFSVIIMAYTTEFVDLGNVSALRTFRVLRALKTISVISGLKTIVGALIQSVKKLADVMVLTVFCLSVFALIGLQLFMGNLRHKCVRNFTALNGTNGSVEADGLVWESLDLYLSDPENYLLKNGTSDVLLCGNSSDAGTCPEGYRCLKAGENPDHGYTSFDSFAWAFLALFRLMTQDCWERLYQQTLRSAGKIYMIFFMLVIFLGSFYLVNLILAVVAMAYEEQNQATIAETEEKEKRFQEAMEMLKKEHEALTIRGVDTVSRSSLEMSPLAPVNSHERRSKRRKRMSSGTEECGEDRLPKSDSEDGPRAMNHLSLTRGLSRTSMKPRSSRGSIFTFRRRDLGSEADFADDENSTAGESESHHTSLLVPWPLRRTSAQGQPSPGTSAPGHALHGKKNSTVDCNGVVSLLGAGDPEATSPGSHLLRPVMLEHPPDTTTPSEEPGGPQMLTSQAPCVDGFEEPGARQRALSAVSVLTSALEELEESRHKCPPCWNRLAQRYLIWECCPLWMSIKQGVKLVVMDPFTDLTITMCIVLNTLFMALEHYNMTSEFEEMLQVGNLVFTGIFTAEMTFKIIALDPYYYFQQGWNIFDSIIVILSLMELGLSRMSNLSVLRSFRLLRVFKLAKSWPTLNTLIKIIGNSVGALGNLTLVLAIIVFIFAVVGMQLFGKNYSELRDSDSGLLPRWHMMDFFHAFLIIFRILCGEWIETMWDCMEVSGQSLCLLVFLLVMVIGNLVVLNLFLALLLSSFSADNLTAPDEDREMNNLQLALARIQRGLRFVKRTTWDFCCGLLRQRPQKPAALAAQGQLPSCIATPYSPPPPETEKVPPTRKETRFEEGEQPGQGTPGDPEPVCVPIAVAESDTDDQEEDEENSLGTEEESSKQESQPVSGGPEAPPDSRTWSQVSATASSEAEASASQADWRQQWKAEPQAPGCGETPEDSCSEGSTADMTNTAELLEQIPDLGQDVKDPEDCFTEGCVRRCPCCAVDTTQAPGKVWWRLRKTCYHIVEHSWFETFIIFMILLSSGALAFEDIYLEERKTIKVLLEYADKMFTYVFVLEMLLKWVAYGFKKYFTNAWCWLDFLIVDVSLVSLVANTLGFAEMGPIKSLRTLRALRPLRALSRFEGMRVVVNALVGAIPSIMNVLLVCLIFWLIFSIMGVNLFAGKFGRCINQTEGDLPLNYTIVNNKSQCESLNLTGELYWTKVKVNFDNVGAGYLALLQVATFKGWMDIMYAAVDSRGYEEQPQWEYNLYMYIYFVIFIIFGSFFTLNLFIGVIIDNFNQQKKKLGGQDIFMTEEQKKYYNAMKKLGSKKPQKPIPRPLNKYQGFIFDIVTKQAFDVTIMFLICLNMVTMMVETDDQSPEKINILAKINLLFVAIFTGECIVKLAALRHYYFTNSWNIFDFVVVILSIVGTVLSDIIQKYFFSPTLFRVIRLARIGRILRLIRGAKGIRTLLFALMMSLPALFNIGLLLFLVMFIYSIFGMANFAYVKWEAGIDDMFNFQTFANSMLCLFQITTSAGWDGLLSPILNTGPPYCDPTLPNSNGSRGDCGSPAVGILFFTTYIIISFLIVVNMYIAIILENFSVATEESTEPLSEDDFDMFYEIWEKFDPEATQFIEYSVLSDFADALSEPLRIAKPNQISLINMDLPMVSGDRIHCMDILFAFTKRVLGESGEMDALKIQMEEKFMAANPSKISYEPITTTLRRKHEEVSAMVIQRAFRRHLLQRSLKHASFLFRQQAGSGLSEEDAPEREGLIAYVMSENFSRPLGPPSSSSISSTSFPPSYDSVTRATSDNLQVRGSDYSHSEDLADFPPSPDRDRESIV

Row | activation at 1 µM [1] [%] | SMILES | activation at 1 µM [2] [%] | further results
1 | – | O=C(Cn1nc(C2=CCC3(CC2)CC3(F)F)ccc1=O)N1CCN(c2cncc(C(F)(F)F)c2)CC1 (stereo not shown) [Example 509] | – | activation at 3 µM [1]: 238%; activation at 3 µM [2]: 5%
2 | – | COc1ncc(C2=CCN(C(=O)Cn3nc(C4=CCC(C(F)(F)F)CC4)ccc3=O)CC2)cn1 (stereo not shown) [Example 510] | – | activation at 3 µM [1]: 50%; activation at 3 µM [2]: 7%
3 | – | COc1ccc(N2CCN(C(=O)Cn3nc(C4=CCC(C(F)(F)F)CC4)ccc3=O)CC2)cn1 (stereo not shown) [Example 511] | – | activation at 3 µM [1]: 37%; activation at 3 µM [2]: 6%
4 | 103 | O=C(Cn1nc(C2=CCC3(CC2)CC3)ccc1=O)Nc1ccn2ncnc2c1 [Example 512, 2-[6-oxo-3-(spiro[2.5]oct-5-en-6-yl)pyridazin-1(6H)-yl]-N-([1,2,4]triazolo[1,5-a]pyridin-7-yl)acetamide] | 34 | –
5 | – | Cc1cc(C2=CCC(C)(C)CC2)nn(CC(=O)N2CCN(c3cccnc3)CC2)c1=O [Example 513] | – | activation at 10 µM [1]: 262%; activation at 10 µM [2]: 4%
6 | 255 | O=C(Cn1nc(C2=CCCCC2)ccc1=O)N1CCc2c(Cn3ccnc3)cccc21 [Example 515] | 287 | –
7 | 130 | Cc1ccc(-c2ccc(=O)n(CC(=O)N3CCc4c(C5CN(C6COC6)C5)cccc43)n2)cc1 [Example 516] | 13 | –
8 | 359 | O=C(Cn1nc(C2=CCCCC2)ccc1=O)N1CCc2c(-c3ccnnc3)cccc21 [Example 517] | 16 | –
9 | 344 | Cc1ncc(-c2cccc3c2CCN3C(=O)Cn2nc(C3=CCCCC3)ccc2=O)cn1 [Example 518] | 9 | –
10 | 253 | CC(=O)N1CC(c2cccc3c2CCN3C(=O)Cn2nc(-c3ccc(C)cc3)ccc2=O)C1 [Example 520] | 252 | –
11 | 358 | O=C(Cn1nc(C2=CCCCC2)ccc1=O)N1CCc2c(-c3cnccn3)cccc21 [Example 521] | 9 | –
12 | 367 | O=C(Cn1nc(C2=CCCCC2)ccc1=O)N1CCc2c(-c3cncnc3)cccc21 [Example 522] | 25 | –
13 | 129 | O=C(Cn1nc(C2=CCCC2)ccc1=O)N1CCc2c(-c3ccnnc3)cccc21 [Example 523] | 5 | –
14 | 143 | O=C(Cn1nc(C2=CCCC2)ccc1=O)N1CCc2c(-c3cccnc3)cccc21 [Example 524] | 5 | –
15 | 499 | O=C(Cn1nc(C2=CCC3(CC2)CC3)ccc1=O)N1CCc2c(-c3ccnnc3)cccc21 [Example 526, 2-{2-oxo-2-[4-(pyridazin-4-yl)-2.3-dihydro-1H-indol-1-yl]ethyl}-6-(spiro[2.5]oct-5-en-6-yl)pyridazin-3(2H)one] | 1 | –
16 | 324 | O=C(Cn1nc(C2=CCC(F)(F)CC2)ccc1=O)N1CCc2c(-c3ccnnc3)cccc21 [Example 527] | 36 | –
17 | 198 | O=C(Cn1nc(C2=CCCCC2)ccc1=O)N1CCc2c(C3=CCOCC3)cccc21 [Example 528] | 24 | –
18 | 183 | CC1CC=C(c2ccc(=O)n(CC(=O)Nc3ccc4ocnc4c3)n2)CC1 (stereo not shown) [Example 531, N-(1,3-benzooxazol-5-yl)-2-[3-(4-methylcyclohex-1-en-1-yl)-6-oxopyridazin-1(6H)-yl]acetamide] | 8 | –
19 | – | CC1CC=C(c2ccc(=O)n(CC(=O)Nc3ccn4ccnc4c3)n2)CC1 (stereo not shown) [Example 532] | – | activation at 10 µM [1]: 239%; activation at 10 µM [2]: 47%
20 | 99 | C[C@@H]1CC=C(c2ccc(=O)n(CC(=O)Nc3ccn4ncnc4c3)n2)CC1 [Example 537, 2-{3-[(4S)-4-methylcyclohex-1-en-1-yl]-6-oxopyridazin-1(6H)-yl}-N-([1,2,4]triazolo[1,5-a]pyridin-7-yl)acetamide] | 29 | –
21 | 135 | C[C@H]1CC=C(c2ccc(=O)n(CC(=O)Nc3ccn4ncnc4c3)n2)CC1 [Example 538, 2-{3-[(4R)-4-methylcyclohex-1-en-1-yl]-6-oxopyridazin-1(6H)-yl}-N-([1,2,4]triazolo[1,5-a]pyridin-7-yl)acetamide] | 45 | –
22 | 80 | C[C@@H]1CC=C(c2ccc(=O)n(CC(=O)Nc3ccc4ncnn4c3)n2)CC1 [Example 539, 2-{3-[(4S)-4-methylcyclohex-1-en-1-yl]-6-oxopyridazin-1(6H)-yl}-N-([1,2,4]triazolo[1,5-a]pyridin-6-yl)acetamide] | 11 | –
23 | 112 | C[C@H]1CC=C(c2ccc(=O)n(CC(=O)Nc3ccc4ncnn4c3)n2)CC1 [Example 540, 2-{3-[(4R)-4-methylcyclohex-1-en-1-yl]-6-oxopyridazin-1(6H)-yl}-N-([1,2,4]triazolo[1,5-a]pyridin-6-yl)acetamide] | 15 | –
